Experimental findings from patent publication US20090227606A1, “Methods for Preventing or Treating Acute and Chronic Pain” (priority 2006, published 2009) are described below.

The test system of test [1] is GLT-1. The test can be described thus: Western blot of cultured astrocytes, GLT-1 protein. The format is cell-based, rat. On the procedure:
After approximately 14 days (2 days after subplating into plates, DIV 14) astrocytes had formed a confluent monolayer. […] Phase contrast microscopy was then carried out in order to assess the morphology of cells after the various treatments. Length of astrocyte processes was quantified by measuring all processes in 2-3 phase contrast images/group by an independent observer, blinded to the treatment groups using Image J v1.34s (National Institutes of Health, Bethesda, Md.).
Cells were scraped into PBS containing a protease inhibitor cocktail (1:1000, Sigma Chemical Co., St. Louis, Mo.) and then lysed by sonication in 5 one-second pulses. The samples were stored at −80° C. until use. Total protein was determined using the Lowry method (DC assay, Bio-Rad, Hercules, Calif.). Forty micrograms of protein (diluted in sample buffer and boiled) and standard protein markers were subjected to SDS/7.5% polyacrylamide gel electrophoresis and transferred to polyvinylidene difluoride (PVDF) membranes. Nonspecific binding was blocked by incubation with 5% milk/PBS-Tween at room temperature for 1 hour followed by incubation overnight at 4° C. with rabbit anti-GLT-1 (1:500) or guinea pig anti-GLAST (1:2500). The following day, blots were washed and incubated for 1 hour at room temperature with goat anti-rabbit HRP-conjugated secondary (1:3000) or goat anti-guinea pig HRP-conjugated secondary antibody (1:5000) and visualized with enhanced chemiluminescence (ECL). Images were obtained using the Typhoon Imaging System (Amersham-GE Healthcare, Piscataway, N.J.). Finally, blots were incubated for 15 minutes in stripping buffer and reprobed with a monoclonal mouse anti-β-actin antibody (1:10,000) as a loading control. Densitometric analysis was performed using ImageQuant 5.2 (Molecular Dynamics, GE Healthcare, Piscataway, N.J.).
A general note: In western blotting, separated proteins are transferred to a membrane and probed.

In test [2] the test system is GLT-1. The test can be described thus: eGFP-GLT-1-positive puncta in mouse spinal cord dorsal horn. The class given is in vivo. On the procedure:
With these in vivo data collected, further experiments were performed in the transgenic mice to more clearly define the effects of propentofylline treatment on GLT-1 and GLAST in the spinal cord. As discussed above, following in vivo testing, mice were transcardially perfused and tissue was fixed with paraformaldehyde. Lumbar spinal cord sections were identified and post-fixed in paraformaldehyde. After one week in sucrose to prevent freeze fracture, spinal cord segments were frozen in dry ice, mounted and prepared with cryostat sectioning. Sections were then subjected to immunohistochemical analysis. […] In order to quantitate the relative number of eGFP (marker for GLT-1) or DsRed (marker for GLAST) puncta in each spinal cord dorsal horn, images using a fluorescence microscope were taken with a Q-Fire cooled camera (397 ms exposure). […] An observer blind to the treatment groups was used to count the relative number of GLT-1 or GLAST positive puncta in the ipsilateral (injured) dorsal horn versus the contralateral (non-injured) dorsal horn. […] For both reporters (GLT-1, green color; GLAST, red color), diffuse, cytoplasmic and punctate, perinuclear expression was observed that overlapped with GFAP (blue color) in some, but not all cases.
Transgenic mice on a C57B1/6 background were created according to the methods previously described (Regan et al. 2006. J. Neuroscience, in press). Briefly, in order to determine where in the central nervous system GLAST is expressed, transgenic mice were created using a bacterial artificial chromosome containing the GLAST gene plus 18 kb of DNA upstream of the first exon and 60 kb downstream of the last exon. DsRed cDNA was inserted into the first exon to allow expression of DsRed instead of GLAST when the promoter is active. […]
As described previously with rats, mice were transcardially perfused with 0.1 M PBS (phosphate-buffered saline), pH 7.4, followed by 4%-paraformaldehyde in PBS on day 12 post-L5 spinal nerve transection. […] The sections were examined with a fluorescence microscope, and images were captured with a Q-Fire cooled camera. […]

Where [3] appears, read: L5/propentofylline group, day 12.

Entries after “also recorded” stand apart in the source; their conditions may differ.

For the molecule `CCCn1cnc2c1c(=O)n(CCCCC(C)=O)c(=O)n2C` [propentofylline], the “GLT-1 protein level, in words” value in the test with GLT-1 [1] (3 or 7 days, normalized to β-actin) is on record as “dose-dependently increased levels of GLT-1 protein”. Besides, the “increase in GLT-1 protein levels” value with GLT-1 [1] (7 days, high dose) worked out at 100 fold. The “increase in GLT-1 protein levels” value in the test with GLT-1 [1] (after 3 days of treatment) is on record as “about 10 fold”. Moreover, in the test on GLT-1 [2] (setting [3]), the “eGFP-GLT-1-positive puncta in injured mice, in words” value is reported as “reversed with propentofylline administration; also recorded: restored levels of eGFP-GLT-1-positive puncta to that of the contralateral side” and the “ipsilateral versus contralateral ratio of eGFP-GLT-1-positive puncta” value came out at 1. For the same molecule, the “eGFP-GLT-1-positive puncta in sham mice” value in the test on GLT-1 [2] (sham/propentofylline group) is on record as “did not lead to further increases in GLT-1 above normal expression levels”.
